Assay results published in publication PMC6409085, “Three odorant-binding proteins are involved in the behavioral response of Sogatella furcifera to rice plant volatiles” (PeerJ, 2019).
Several values for one entry are separate records, joined by “and”; a condition that tells them apart may be missing. Equal values may be shown once.

Tests used:
SfurOBP1 = SfurOBP1 (Sogatella furcifera, UniProt V5T8N5); test: Binding of 1-NPN to SfurOBP1 (fluorescence titration); conditions: for Fluorescence intensity: OBP1, triplicate columns
SfurOBP1, sequence (V5T8N5 entry or part of it): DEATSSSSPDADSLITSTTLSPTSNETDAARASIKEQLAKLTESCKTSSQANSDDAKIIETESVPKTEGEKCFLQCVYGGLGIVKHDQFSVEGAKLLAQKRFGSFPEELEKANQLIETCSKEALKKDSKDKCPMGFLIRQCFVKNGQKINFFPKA
Protocol: (§1) Fluorescence competitive binding assays were performed on Tecan Spark 10M (Tecan Group Ltd., Männedorf, Switzerland) with the F96 Black ELIAS Plate (Sangon) ([Khuhro et al., 2017]; [Liu et al., 2017]). The solutions were excited at 337 nm and emission spectra were recorded between 390 and 490 nm. First, to test the binding constants of 1-NPN to the SfurOBPs, a 2.0 µM solution of protein in 50 mM Tris-HCl (pH = 7.4) was titrated with 1 mM 1-NPN to achieve virous concentrations. Next, the competitive binding of each odorant was measured using the 1-NPN as fluorescent reporter and odorant as competitor. The concentrations of protein and 1-NPN were both 2.0 µM, the odorant added after protein and 1-NPN added into the well of ELIAS Plate for 2 min. The final concentrations of each competitor were 2, 4, 6, 8, 10, 12, 14, 16, 18 and 20 µM. After 2 min of odorant added, the fluorescence intensity was measured and recorded. The volume of mixed solution in each well was maintained at 250 µL. Each interaction was performed in triplicates.
(§2) GraphPad Prism 7.0 software (GraphPad Software, Inc., La Jolla, CA, USA) was used to calculated and generated the binding constants (K1−NPN) of 1-NPN to SfurOBPs and relative Scatchard plots ([Ban et al., 2003]; [Li et al., 2016]). Dissociation constant (Ki) of each odorant to SfurOBP was computed from the corresponding IC50 value (the half maximal inhibitory concentration), using the following equation: Ki=[IC50]/(1 + [1-NPN]/K1−NPN), where [1-NPN] is the free concentration of 1-NPN and K1−NPN is the dissociation constant of the complex protein/1-NPN.

SfurOBP11 = SfurOBP11 (Sogatella furcifera, UniProt V5T6E3); test: Binding of 1-NPN to SfurOBP11 (fluorescence titration); conditions: for Fluorescence intensity: OBP11, triplicate columns
SfurOBP11, sequence (V5T6E3 entry or part of it): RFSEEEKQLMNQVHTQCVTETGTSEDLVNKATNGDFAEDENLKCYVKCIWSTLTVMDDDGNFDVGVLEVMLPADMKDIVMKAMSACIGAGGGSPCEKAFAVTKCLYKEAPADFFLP
Protocol: as §1, §2

SfurOBP2 = SfurOBP2 (Sogatella furcifera, UniProt V5T759); test: Binding of 1-NPN to SfurOBP2 (fluorescence titration); conditions: for Fluorescence intensity: OBP2, triplicate columns
SfurOBP2, sequence (V5T759 entry or part of it): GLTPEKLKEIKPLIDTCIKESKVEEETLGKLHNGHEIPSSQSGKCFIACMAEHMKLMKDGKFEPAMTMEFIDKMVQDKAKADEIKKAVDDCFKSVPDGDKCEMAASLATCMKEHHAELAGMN
Protocol: as §1, §2

SfurOBP3 = SfurOBP3 (Sogatella furcifera, UniProt V5T818); test: Binding of 1-NPN to SfurOBP3 (fluorescence titration); conditions: for Fluorescence intensity: OBP3, triplicate columns
SfurOBP3, sequence (V5T818 entry or part of it): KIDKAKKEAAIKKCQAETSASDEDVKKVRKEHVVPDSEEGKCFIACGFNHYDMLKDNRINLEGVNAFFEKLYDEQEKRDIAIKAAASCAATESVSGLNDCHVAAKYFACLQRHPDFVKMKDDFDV
Protocol: as §1, §2

With `c1ccc(Nc2cccc3ccccc23)cc1` [1-NPN, N-phenyl-1-naphthylamine] the Fluorescence intensity (SfurOBP1; 1-NPN 2 (unit not given)) was 7934 and 7244 and 7558, the Fluorescence intensity (SfurOBP1; 1-NPN 4 (unit not given)) was 14870 and 13520 and 13256 and the Fluorescence intensity (SfurOBP1; 1-NPN 6 (unit not given)) was 19450 and 20173 and 19826. The Fluorescence intensity (SfurOBP1; 1-NPN 8 (unit not given)) was 25948 and 27851 and 26112, the Fluorescence intensity (SfurOBP1; 1-NPN 10 (unit not given)) was 30874 and 31162 and 28910 and the Fluorescence intensity (SfurOBP1; 1-NPN 12 (unit not given)) was 33259 and 35914 and 35970. For the same compound, the Fluorescence intensity (SfurOBP1; 1-NPN 14 (unit not given)) was 37528 and 37617 and 40532, the Fluorescence intensity (SfurOBP1; 1-NPN 16 (unit not given)) was 43674 and 43309 and 43505 and the Fluorescence intensity (SfurOBP1; 1-NPN 18 (unit not given)) was 50472 and 51665 and 48009. For the same compound, the Fluorescence intensity (SfurOBP1; 1-NPN 20 (unit not given)) was 53471 and 53438 and 53794, the Fluorescence intensity (SfurOBP1; 1-NPN 22 (unit not given)) was 54404 and 53461 and 54332 and the Fluorescence intensity (SfurOBP1; 1-NPN 24 (unit not given)) was 55616 and 55933 and 55336. The Fluorescence intensity (SfurOBP1; 1-NPN 26 (unit not given)) was 55005 and 58722 and 54776, the Fluorescence intensity (SfurOBP1; 1-NPN 28 (unit not given)) was 60087 and 56565 and 53471 and the Fluorescence intensity (SfurOBP1; 1-NPN 30 (unit not given)) was 59000 and 55051 and 51066. The Kd (SfurOBP1; SfurOBP1, 2.0 µM protein, 50 mM Tris-HCl pH 7.4, read-out: dissociation constant of 1-NPN) was 24.2 µM, the Fluorescence intensity (SfurOBP11; 1-NPN 2 (unit not given)) was 34926 and 31369 and 32128 and the Fluorescence intensity (SfurOBP11; 1-NPN 4 (unit not given)) was 46136 and 60649 and 53421. The Fluorescence intensity (SfurOBP11; 1-NPN 6 (unit not given)) was 59058 and 63562 and 67479, the Fluorescence intensity (SfurOBP11; 1-NPN 8 (unit not given)) was 73431 and 79398 and 77472 and the Fluorescence intensity (SfurOBP11; 1-NPN 10 (unit not given)) was 83685 and 83190 and 84209. For the same compound, the Fluorescence intensity (SfurOBP11; 1-NPN 12 (unit not given)) was 87527 and 87829 and 87441, the Fluorescence intensity (SfurOBP11; 1-NPN 14 (unit not given)) was 113208 and 119321 and 82397 and the Fluorescence intensity (SfurOBP11; 1-NPN 16 (unit not given)) was 121541 and 129453 and 101542. For the same compound, the Fluorescence intensity (SfurOBP11; 1-NPN 18 (unit not given)) was 129684 and 132053 and 101150, the Fluorescence intensity (SfurOBP11; 1-NPN 20 (unit not given)) was 142842 and 126669 and 108121 and the Fluorescence intensity (SfurOBP11; 1-NPN 22 (unit not given)) was 118001 and 129399 and 126785. For the same compound, the Fluorescence intensity (SfurOBP11; 1-NPN 24 (unit not given)) was 123359 and 122043 and 121686, the Kd (SfurOBP11; SfurOBP11, 2.0 µM protein, 50 mM Tris-HCl pH 7.4, read-out: dissociation constant of 1-NPN) was 10.4 µM and the Fluorescence intensity (SfurOBP2; 1-NPN 2 (unit not given)) was 23662 and 22289 and 22010. For the same compound, the Fluorescence intensity (SfurOBP2; 1-NPN 4 (unit not given)) was 39603 and 44704 and 31870, the Fluorescence intensity (SfurOBP2; 1-NPN 6 (unit not given)) was 50431 and 46158 and 47197 and the Fluorescence intensity (SfurOBP2; 1-NPN 8 (unit not given)) was 61337 and 63137 and 57001. The Fluorescence intensity (SfurOBP2; 1-NPN 10 (unit not given)) was 59819 and 73730 and 69974, the Fluorescence intensity (SfurOBP2; 1-NPN 14 (unit not given)) was 64863 and 65896 and 57584 and the Fluorescence intensity (SfurOBP2; 1-NPN 16 (unit not given)) was 70787 and 76872 and 65200. The Fluorescence intensity (SfurOBP2; 1-NPN 18 (unit not given)) was 75833 and 70878 and 75400, the Fluorescence intensity (SfurOBP2; 1-NPN 20 (unit not given)) was 67482 and 73624 and 78268 and the Fluorescence intensity (SfurOBP2; 1-NPN 22 (unit not given)) was 76334 and 74639 and 64277. The Kd (SfurOBP2; SfurOBP2, 2.0 µM protein, 50 mM Tris-HCl pH 7.4, read-out: dissociation constant of 1-NPN) was 5.67 µM, the Fluorescence intensity (SfurOBP3; 1-NPN 2 (unit not given)) was 61430 and 58985 and 59650 and the Fluorescence intensity (SfurOBP3; 1-NPN 4 (unit not given)) was 77503 and 80113 and 80262. For the same compound, the Fluorescence intensity (SfurOBP3; 1-NPN 6 (unit not given)) was 85325 and 83919 and 82776, the Fluorescence intensity (SfurOBP3; 1-NPN 8 (unit not given)) was 97386 and 97137 and 85039 and the Fluorescence intensity (SfurOBP3; 1-NPN 10 (unit not given)) was 98049 and 103605 and 94167. For the same compound, the Fluorescence intensity (SfurOBP3; 1-NPN 12 (unit not given)) was 100936 and 110967 and 98958, the Fluorescence intensity (SfurOBP3; 1-NPN 14 (unit not given)) was 99019 and 113580 and 103187 and the Fluorescence intensity (SfurOBP3; 1-NPN 16 (unit not given)) was 114929 and 113428 and 104178. The Fluorescence intensity (SfurOBP3; 1-NPN 18 (unit not given)) was 121020 and 111471 and 116920, the Fluorescence intensity (SfurOBP3; 1-NPN 20 (unit not given)) was 114200 and 113028 and 114937 and the Fluorescence intensity (SfurOBP3; 1-NPN 22 (unit not given)) was 115221 and 112203 and 110696. The Fluorescence intensity (SfurOBP3; 1-NPN 24 (unit not given)) was 120756 and 110811 and 112155, the Fluorescence intensity (SfurOBP3; 1-NPN 26 (unit not given)) was 117527 and 109823 and 115694 and the Fluorescence intensity (SfurOBP3; 1-NPN 28 (unit not given)) was 107913 and 111968 and 118918. The Fluorescence intensity (SfurOBP3; 1-NPN 30 (unit not given)) was 110746 and 113690 and 116658 and the Kd (SfurOBP3; SfurOBP3, 2.0 µM protein, 50 mM Tris-HCl pH 7.4, read-out: dissociation constant of 1-NPN) was 2.42 µM.
